# Where two headings read alike, the source gives them in different places.
# Columns and labels:
# [1] = test system: THLE or HepG2 cells, isolated mitochondria, BSEP; settings: cited from earlier work
# PHH [2] = settings: cited from earlier work
# HepG2 cells = settings: cited from earlier work
# [3] = read-out: Human plasma Cmax; total plasma Cmax.tot, median of 9 literature references; cited from earlier work
# [4] = test system: primary human hepatocytes, NIH3T3 fibroblasts, BSEP, CYP3A4; settings: cited from earlier work
# hLiMTs [5] = experiment: Combined HCI (HCS) and cellular ATP 3D assay in hLiMTs; settings: for AC50 / minimal effective concentration: Homo sapiens
# PHH [6] = settings: In vitro Assay; ref Albrecht 2019; cited from earlier work
# [7] = cited from earlier work
# [8] = ref Chen 2011; cited from earlier work
# [9] = test system: isolated mouse liver mitochondria; settings: In vitro Assay; ref Porceddu 2012; cited from earlier work
# HepG2 = test system: HepG2; parameters: method as in Albrecht 2019; settings: In vitro Assay; ref Albrecht 2019; cited from earlier work
# hLiMTs [10] = settings: cited from earlier work
# [11] = cited from earlier work; remark: listed apart in the source
# [12] = test system: HepG2 C3A spheroid, BSEP, Glu/Gal in HepG2 cells, bioactivation; settings: cited from earlier work
# [13] = test system: HepG2 cells, primary human hepatocytes; settings: In vitro Assay; ref Garside 2014; cited from earlier work
# [14] = Plasma free fraction (fu) and unbound Cmax (Cmax,u); format: in vitro ADME, human; settings: unbound plasma Cmax
# Description: The prediction of DILI severity was evaluated further using the 3D combined HCI assays using plasma-free fraction. The majority of fu values were obtained from literature, when unavailable in-house prediction was utilised. Unbound plasma Cmax concentrations (Cmax,u) were derived by multiplying total plasma Cmax with the corresponding free fraction (fu) for each compound.
# rBsep = settings: In vitro Assay; ref Dawson 2012; cited from earlier work
# [15] = plasma free fraction; cited from earlier work
# HepaRG spheroids = experiment: Combined HCI (HCS) and cellular ATP 3D assay in HepaRG spheroids; settings: for AC50 / minimal effective concentration: Homo sapiens
# PHH spheroids = settings: cited from earlier work
# [16] = test system: THLE-Null and THLE-3A4 cells; settings: In vitro Assay; ref Gustafsson 2014; cited from earlier work
# [17] = Modeled in vitro assays (cytotoxicity, mitochondrial dysfunction, BSEP), ref Aleo et al. 2019
# [18] = In vitro Assay, ref Proctor 2017
# [19] = In vitro Assay, ref Persson 2013
# [20] = In vitro Assay, ref Schadt 2015
# [21] = Microtissue model structural based (HCI), combined HCS and ATP, MEC < 25 × Cmax.tot cut-off
smiles,measurement,setting,value
"Cc1ccc(C(=O)c2cc(O)c(O)c([N+](=O)[O-])c2)cc1 [tolcapone, reference compound]",Partition Hybrid HRM Score,"[1]; In vitro Assay, ref Aleo 2019",+VE
same,Ro2 Hybrid HRM Score,"[1]; In vitro Assay, ref Aleo 2019",+VE
same,"Partition Hybrid HRM Score ≥4, Aleo (2019)",[1]; [17],+VE (Partition Hybrid HRM Score ≥4)
same,"Partition Hybrid HRM Score ≥8, Aleo (2019)",[1]; [17],+VE (Partition Hybrid HRM Score ≥8)
same,"Rule of Two hybrid HRM Score ≥3, Aleo (2019)",[1]; [17],+VE (Rule of Two hybrid HRM Score ≥3)
same,"Rule of Two hybrid HRM Score ≥8, Aleo (2019)",[1]; [17],+VE (Rule of Two hybrid HRM Score ≥8)
same,"PHH/100xCmax, Proctor (2017)","PHH [2]; 2D PHH, ATP, IC50 < 100 × Cmax.tot, ref Proctor et al. 2017",+VE (IC50 < 100 × Cmax.tot)
same,"PHH/100uM, Proctor (2017)","PHH [2]; 2D PHH, ATP, IC50 threshold 100 µM, ref Proctor et al. 2017",-VE
same,PHH ATP <100uM,PHH [2]; [18],+VE (IC50 threshold of 100 µM)
same,Cluser analysis,HepG2 cells; [19],-VE
same,Structural based (HCI),HepG2 cells; [19],+VE
same,"DILI in vitro assay prediction, Persson (2013)","HepG2 cells; Structural based (HCI), HepG2, ref Persson et al. 2013",-VE
same,Cmax,[3],47.6 µM
same,"DILI in vitro assay prediction, Schadt (2015)","[4]; BSEP & Metabolism based, ref Schadt et al. 2015",+VE
same,Cellular toxicity (3T3 cells),[4]; [20],+VE
same,Combined Assay,[4]; [20],+VE
same,GSH adduct HML,[4]; [20],+VE
same,Hepatocyte cellular toxicity,[4]; [20],+VE
same,MitoTox 3T3,[4]; [20],-VE
same,TDI CYP3A4,[4]; [20],-VE
same,hBSEP inhibition,[4]; [20],+VE
same,AC50,hLiMTs [5]; read-out: ATP endpoint AC50,161 µM
same,minimal effective concentration,hLiMTs [5]; read-out: ATP endpoint MEC,114 µM
same,AC50,hLiMTs [5]; read-out: HCS endpoint AC50,60.8 µM
same,minimal effective concentration,hLiMTs [5]; read-out: HCS endpoint MEC,24.1 µM
same,DILI prediction hLiMTs (HCS-MEC),hLiMTs [5]; [21],+VE (MEC < 25 × Cmax.tot cut-off)
same,hLiMTs <25x Avg Cmax ATP,"hLiMTs [5]; hLiMTs, ATP endpoint, cut-off <25x Avg Cmax",+ve
same,hLiMTs <100x Avg Cmaxu ATP,"hLiMTs [5]; hLiMTs, ATP endpoint, cut-off <100x Avg Cmaxu",-ve
same,hLiMTs <25x Avg Cmax HCS,"hLiMTs [5]; hLiMTs, HCS endpoints, cut-off <25x Avg Cmax",+ve
same,hLiMTs <100x Avg Cmaxu HCS,"hLiMTs [5]; hLiMTs, HCS endpoints, cut-off <100x Avg Cmaxu",-ve
same,hLiMTs <25x Avg Cmax All,"hLiMTs [5]; hLiMTs, all endpoints (ATP and HCS), cut-off <25x Avg Cmax",+ve
same,hLiMTs Cmax max All,"hLiMTs [5]; hLiMTs, all endpoints, Cmax max used",+ve
same,hLiMTs Cmax min All,"hLiMTs [5]; hLiMTs, all endpoints, Cmax min used",+ve
same,hLiMTs <10 uM All,"hLiMTs [5]; hLiMTs, all endpoints, cut-off <10 uM",-ve
same,hLiMTs <100x Avg Cmaxu All,"hLiMTs [5]; hLiMTs, all endpoints, cut-off <100x Avg Cmaxu",-ve
same,Cytotoxicity PHH 48 hrs,PHH [6],+VE
same,Assigned DILI category,"[7]; Chen et al. 2016 or literature alignment, ref Chen et al. 2016",3
same,In vivo DILI,[7]; ref Albrecht 2019,+VE
same,In vivo DILI,[7]; ref Aleo 2019,+VE
same,In vivo DILI,[7]; ref Dawson 2012,+VE
same,In vivo DILI,[7]; ref Garside 2014,+VE
same,In vivo DILI,[7]; ref Gustafsson 2014,+VE
same,In vivo DILI,[7]; ref Persson 2013,+VE
same,In vivo DILI,[7]; ref Porceddu 2012,+VE
same,In vivo DILI,[7]; ref Proctor 2017,+VE
same,In vivo DILI,[7]; ref Schadt 2015,+VE
same,In vivo DILI,[7]; ref Vorrink 2018,+VE
same,In vivo DILI,[7]; ref Williams 2019,+VE
same,DILI Score (FDA) (1-8),[8],8
same,in vitro data EC2<=1x Cmax,[9],+VE
same,in vitro data EC20<=2uM,[9],-VE
same,Cytotoxicity HepG2 48 hrs,HepG2,+VE
same,hLiMTs ATP <100uM,hLiMTs [10]; [18],+VE (IC50 threshold of 100 µM)
same,"hLiMTs/100xCmax, Proctor (2017)","hLiMTs [10]; hLiMTs, ATP, IC50 < 100 × Cmax.tot, ref Proctor et al. 2017",+VE (IC50 < 100 × Cmax.tot)
same,"hLiMTs/100uM, Proctor (2017)","hLiMTs [10]; hLiMTs, ATP, IC50 threshold 100 µM, ref Proctor et al. 2017",+VE (IC50 threshold of 100 µM)
same,DILI severity category (Chen et al. [2016]),"[11]; LTKB DILIrank category, ref Chen et al. 2016",Most
same,DILI severity category (Chen 2016),"[11]; human DILI classification, LTKB DILIrank, ref Chen et al. 2016",Most
same,DILI severity category,"[11]; human DILI severity, ref Chen et al.",Most
same,"DILI +VE (5-8), DILI -VE (-4)",[11]; ref Chen 2016,+VE
same,DILI severity category,[11]; ref Chen 2016,vMost-DILI-Concern
same,"Bayesian Machine Learning DILI prediction, Williams (2019)","[12]; Bayesian modeling, ref Williams et al. 2019",+VE
same,Bayesian Machine Learning,"[12]; In vitro Assay, ref Williams 2019",+VE
same,Cluster 1-6 +VE Assay,[13],+VE
same,"Human plasma Cmax,u",[14],0.048 µM
same,Inhibition of rBsep cutoff<1& cmax u>.2,rBsep,+VE
same,Inhibition of rBsep cutoff<3,rBsep,+VE
same,fu,[15],0.001
same,HepaRG <25x Avg Cmax ATP,"HepaRG spheroids; HepaRG, ATP endpoint, cut-off <25x Avg Cmax",+ve
same,HepaRG <100x Avg Cmaxu ATP,"HepaRG spheroids; HepaRG, ATP endpoint, cut-off <100x Avg Cmaxu",-ve
same,HepaRG <25x Avg Cmax HCS,"HepaRG spheroids; HepaRG, HCS endpoints, cut-off <25x Avg Cmax",+ve
same,HepaRG <100x Avg Cmaxu HCS,"HepaRG spheroids; HepaRG, HCS endpoints, cut-off <100x Avg Cmaxu",-ve
same,HepaRG <25x Avg Cmax All,"HepaRG spheroids; HepaRG, all endpoints (ATP and HCS), cut-off <25x Avg Cmax",+ve
same,HepaRG Cmax max All,"HepaRG spheroids; HepaRG, all endpoints, Cmax max used",+ve
same,HepaRG Cmax min All,"HepaRG spheroids; HepaRG, all endpoints, Cmax min used",+ve
same,HepaRG <10 uM All,"HepaRG spheroids; HepaRG, all endpoints, cut-off <10 uM",-ve
same,HepaRG <100x Avg Cmaxu All,"HepaRG spheroids; HepaRG, all endpoints, cut-off <100x Avg Cmaxu",-ve
same,AC50,"HepaRG spheroids; HepaRG, read-out: ATP endpoint AC50",35.3 µM
same,minimal effective concentration,"HepaRG spheroids; HepaRG, read-out: ATP endpoint MEC",20.5 µM
same,AC50,"HepaRG spheroids; HepaRG, read-out: HCS endpoint AC50",36.1 µM
same,minimal effective concentration,"HepaRG spheroids; HepaRG, read-out: HCS endpoint MEC",21 µM
same,DILI prediction HepaRG spheroids (HCS-MEC),HepaRG spheroids; [21],+VE (MEC < 25 × Cmax.tot cut-off)
same,hLiMTs ATP <20 x Cmax,"PHH spheroids; In vitro Assay, ref Vorrink 2018",+VE (IC20 < 20 × Cmax.tot cut-off)
same,"DILI in vitro assay prediction, Vorrink (2018)","PHH spheroids; PHH spheroids, ATP, 14 days, IC20 < 20 × Cmax.tot, ref Vorrink et al. 2018",+VE (IC20 < 20 × Cmax.tot cut-off)
same,THLE-Null,[16],+VE
same,THLE-Null/3A4,[16],-VE
